Assay results: PMC11557217, “Insights into the Functioning of the D-amino Acid Transaminase from Haliscomenobacter Hydrossis via a Structural and Spectral Analysis of its Complex with 3-Aminooxypropionic Acid” (Acta Naturae, 2024)

Columns and labels:
[1] = biological target: T1, TA_Halhy (Haliscomenobacter hydrossis, UniProt F4KWH0); experiment: X-ray crystal structure ([…] Å, co-crystallization); UV/Vis spectra of oxime formation; assay type: binding; conditions: covalent: forms oxime with the PLP cofactor; crystals at pH 5.5, 12 mM compound, 6 mM PLP; spectra at pH 8.0, 25 °C; carboxyl group in O-pocket; reversible
T1 construct: gene Halhy_2446; PLP holoenzyme; homodimer
T1 sequence (F4KWH0 1-281): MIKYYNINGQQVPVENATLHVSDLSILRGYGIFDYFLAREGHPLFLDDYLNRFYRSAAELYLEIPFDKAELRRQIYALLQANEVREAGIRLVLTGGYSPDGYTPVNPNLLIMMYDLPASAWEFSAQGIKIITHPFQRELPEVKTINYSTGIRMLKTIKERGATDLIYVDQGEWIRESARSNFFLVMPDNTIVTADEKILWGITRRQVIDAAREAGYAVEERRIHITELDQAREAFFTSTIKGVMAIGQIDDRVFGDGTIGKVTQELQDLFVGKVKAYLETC

[2] = biological target: T1, TA_Halhy; experiment: transamination, lactate dehydrogenase-coupled NADH assay; substrate inhibition curve; assay type: biochemical; conditions: 2.5 mM pyruvate, 30 μM PLP, 50 mM potassium phosphate, pH 8.0, 40 °C
[3] = biological target: T1, TA_Halhy; experiment: UV/Vis spectra and activity restoration of the apoenzyme on adding PLP; assay type: biochemical; conditions: 50 mM potassium phosphate, pH 8.0; covalent internal aldimine in the holoenzyme
[4] = biological target: T1, TA_Halhy; experiment: transamination; substrate inhibition curve; assay type: biochemical; conditions: 40 mM D-alanine, 30 μM PLP, 50 mM potassium phosphate, pH 8.0, 40 °C

In the case of `NOCCC(=O)O` [3-aminooxypropionic acid, 3-(aminooxy)propanoic acid], the “X-ray crystal structure (1.70 Å, co-crystallization); UV/Vis spectra of oxime fo” value [1] is reported as “the structure of the TA_Halhy complex has been solved and refined”.
For `N[C@H](CCC(=O)O)C(=O)O` [D-glutamic acid], the “transamination, lactate dehydrogenase-coupled NADH assay; substrate inhibition c” value [2] was “TA_Halhy is inhibited by D-glutamic acid and α-ketoglutarate at substrate concentrations as low as millimolars”.
`Cc1ncc(COP(=O)(O)O)c(C=O)c1O` [pyridoxal 5'-phosphate] was tested, and the “UV/Vis spectra and activity restoration of the apoenzyme on adding PLP” value [3] was “Holoenzyme was formed, and TA_Halhy activity was fully restored, after PLP was added”.
In the case of `O=C(O)CCC(=O)C(=O)O` [α-ketoglutarate], the “transamination; substrate inhibition curve” value [4] is reported as “TA_Halhy is inhibited by D-glutamic acid and α-ketoglutarate at substrate concentrations as low as millimolars”.
